Test results taken from ChEMBL document CHEMBL1201862, “PubChem BioAssay data set” (2004).
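A five-concentration, 48-hour dose response in 96-well plates underlies each endpoint, interpolated linearly between surrounding concentrations. GI50 is the concentration that inhibits growth by half.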 Calls of active or inactive are those of the source. Rule as the data show it: active = GI50 up to about 1.1 µM and inactive = higher.

Legend:
Assay in all cases: NCI anticancer screen, dose series, 48 h
786-0 = system: 786-0
BT-549 = system: BT-549
COLO 205 = system: COLO 205
HCT-116 = system: HCT-116
IGROV-1 = system: IGROV-1
KM12 = system: KM12
LOX IMVI = system: LOX IMVI
MCF7 = system: MCF7
MOLT-4 = system: MOLT-4
NCI-H226 = system: NCI-H226
NCI-H522 = system: NCI-H522
OVCAR-3 = system: OVCAR-3
OVCAR-5 = system: OVCAR-5
PC-3 = system: PC-3
SF-295 = system: SF-295
SK-MEL-2 = system: SK-MEL-2
SNB-19 = system: SNB-19
SNB-75 = system: SNB-75
TK-10 = system: TK-10
UO-31 = system: UO-31

## COc1cc(C)cc(C(=O)/C=C/c2ccccc2)c1O
786-0
  GI50: 17.8 µM (inactive)
BT-549
  GI50: 17.4 µM (inactive)
COLO 205
  GI50: 20 µM (inactive)
HCT-116
  GI50: 17.7 µM (inactive)
IGROV-1
  GI50: 12.6 µM (inactive)
KM12
  GI50: 18.5 µM (inactive)
LOX IMVI
  GI50: 17.4 µM (inactive)
MCF7
  GI50: 12.1 µM (inactive)
MOLT-4
  GI50: 30.2 µM (inactive)
NCI-H226
  GI50: 24.2 µM (inactive)
NCI-H522
  GI50: 17.9 µM (inactive)
OVCAR-3
  GI50: 16.5 µM (inactive)
OVCAR-5
  GI50: 13.8 µM (inactive)
PC-3
  GI50: 19.3 µM (inactive)
SF-295
  GI50: 20.9 µM (inactive)
SK-MEL-2
  GI50: 18.5 µM (inactive)
SNB-19
  GI50: 16 µM (inactive)
SNB-75
  GI50: 24.5 µM (inactive)
TK-10
  GI50: 18.6 µM (inactive)
UO-31
  GI50: 17.8 µM (inactive)

## NC(Cc1ccnnc1)C(=O)O (centres undefined)
786-0
  GI50: > 100 µM (inactive)
BT-549
  GI50: > 100 µM (inactive)
COLO 205
  GI50: > 100 µM (inactive)
HCT-116
  GI50: > 100 µM (inactive)
IGROV-1
  GI50: > 100 µM (inactive)
KM12
  GI50: > 100 µM (inactive)
LOX IMVI
  GI50: > 100 µM (inactive)
MCF7
  GI50: > 100 µM (inactive)
MOLT-4
  GI50: > 100 µM (inactive)
NCI-H226
  GI50: > 100 µM (inactive)
NCI-H522
  GI50: > 100 µM (inactive)
OVCAR-3
  GI50: > 100 µM (inactive)
OVCAR-5
  GI50: > 100 µM (inactive)
PC-3
  GI50: > 100 µM (inactive)
SF-295
  GI50: > 100 µM (inactive)
SK-MEL-2
  GI50: > 100 µM (inactive)
SNB-19
  GI50: > 100 µM (inactive)
SNB-75
  GI50: > 100 µM (inactive)
TK-10
  GI50: > 100 µM (inactive)
UO-31
  GI50: > 100 µM (inactive)

## COC(=O)C1(Cc2ccc3c(c2)CCC3)Cc2cc3c(cc2C1=O)CCC3 (centres undefined)
786-0
  GI50: > 46.5 µM (inactive)
BT-549
  GI50: 7.96 µM (inactive)
COLO 205
  GI50: 15.4 µM (inactive)
HCT-116
  GI50: 11.4 µM (inactive)
IGROV-1
  GI50: 24.4 µM (inactive)
KM12
  GI50: 18 µM (inactive)
LOX IMVI
  GI50: 25.1 µM (inactive)
MCF7
  GI50: 21.4 µM (inactive)
MOLT-4
  GI50: 16.5 µM (inactive)
NCI-H226
  GI50: 39.2 µM (inactive)
NCI-H522
  GI50: 8.85 µM (inactive)
OVCAR-3
  GI50: 44.6 µM (inactive)
OVCAR-5
  GI50: > 46.5 µM (inactive)
PC-3
  GI50: 17.9 µM (inactive)
SF-295
  GI50: 35.6 µM (inactive)
SK-MEL-2
  GI50: 17.1 µM (inactive)
SNB-19
  GI50: 31.2 µM (inactive)
SNB-75
  GI50: 42.2 µM (inactive)
TK-10
  GI50: > 46.5 µM (inactive)
UO-31
  GI50: 16 µM (inactive)

## COC(=O)[C@]12CC[C@H]3CC[C@H]([C@H]31)[C@H](c1ccccc1)N2
786-0
  GI50: 15.7 µM (inactive)
BT-549
  GI50: 18.4 µM (inactive)
COLO 205
  GI50: 16.5 µM (inactive)
HCT-116
  GI50: 15.6 µM (inactive)
IGROV-1
  GI50: 17 µM (inactive)
KM12
  GI50: 18.5 µM (inactive)
LOX IMVI
  GI50: 17.3 µM (inactive)
MCF7
  GI50: 16 µM (inactive)
MOLT-4
  GI50: 12.9 µM (inactive)
NCI-H226
  GI50: 15.4 µM (inactive)
NCI-H522
  GI50: 20.5 µM (inactive)
OVCAR-3
  GI50: 15.2 µM (inactive)
OVCAR-5
  GI50: 17.3 µM (inactive)
PC-3
  GI50: 16.3 µM (inactive)
SF-295
  GI50: 16.3 µM (inactive)
SK-MEL-2
  GI50: 15.2 µM (inactive)
SNB-19
  GI50: 23 µM (inactive)
SNB-75
  GI50: 26.9 µM (inactive)
TK-10
  GI50: 17.2 µM (inactive)
UO-31
  GI50: 17.4 µM (inactive)

## Nc1nc(Cl)c(C=O)c(NCC2(CO)CC(CCc3ccccc3)C2)n1 (centres undefined)
786-0
  GI50: 21 µM (inactive)
BT-549
  GI50: 12.1 µM (inactive)
COLO 205
  GI50: 11.6 µM (inactive)
HCT-116
  GI50: 13.7 µM (inactive)
IGROV-1
  GI50: 1.74 µM (inactive)
KM12
  GI50: 13.7 µM (inactive)
LOX IMVI
  GI50: 2.95 µM (inactive)
MCF7
  GI50: 9.16 µM (inactive)
MOLT-4
  GI50: 2.62 µM (inactive)
NCI-H226
  GI50: 12.6 µM (inactive)
NCI-H522
  GI50: 1.71 µM (inactive)
OVCAR-3
  GI50: 11.3 µM (inactive)
OVCAR-5
  GI50: 15.8 µM (inactive)
PC-3
  GI50: 6.43 µM (inactive)
SF-295
  GI50: 13.3 µM (inactive)
SK-MEL-2
  GI50: 3.57 µM (inactive)
SNB-19
  GI50: 13.7 µM (inactive)
SNB-75
  GI50: 18.7 µM (inactive)
TK-10
  GI50: 15.2 µM (inactive)
UO-31
  GI50: 1.48 µM (inactive)

## CC(C)OP(=O)(CN(C)/C(F)=N\C(F)(F)F)OC(C)C
786-0
  GI50: > 100 µM (inactive)
BT-549
  GI50: > 100 µM (inactive)
COLO 205
  GI50: > 100 µM (inactive)
HCT-116
  GI50: > 100 µM (inactive)
IGROV-1
  GI50: > 100 µM (inactive)
KM12
  GI50: > 100 µM (inactive)
LOX IMVI
  GI50: > 100 µM (inactive)
MCF7
  GI50: > 100 µM (inactive)
MOLT-4
  GI50: > 100 µM (inactive)
NCI-H226
  GI50: > 100 µM (inactive)
NCI-H522
  GI50: 8.2 µM (inactive)
OVCAR-3
  GI50: > 100 µM (inactive)
OVCAR-5
  GI50: > 100 µM (inactive)
PC-3
  GI50: > 100 µM (inactive)
SF-295
  GI50: > 100 µM (inactive)
SK-MEL-2
  GI50: > 100 µM (inactive)
SNB-19
  GI50: > 100 µM (inactive)
SNB-75
  GI50: > 100 µM (inactive)
TK-10
  GI50: > 100 µM (inactive)
UO-31
  GI50: > 100 µM (inactive)

## CS(=O)(=O)OCC1CN(S(C)(=O)=O)c2cc(O)ccc21 (centres undefined)
786-0
  GI50: 3.67 µM (inactive)
BT-549
  GI50: 2.19 µM (inactive)
COLO 205
  GI50: 2.3 µM (inactive)
HCT-116
  GI50: 2.77 µM (inactive)
IGROV-1
  GI50: 3.85 µM (inactive)
KM12
  GI50: 2.96 µM (inactive)
LOX IMVI
  GI50: 3.17 µM (inactive)
MCF7
  GI50: 1.53 µM (inactive)
MOLT-4
  GI50: 1.22 µM (inactive)
NCI-H226
  GI50: 3.33 µM (inactive)
NCI-H522
  GI50: 1.11 µM (active)
OVCAR-3
  GI50: 2.82 µM (inactive)
OVCAR-5
  GI50: 2.84 µM (inactive)
PC-3
  GI50: 2.09 µM (inactive)
SF-295
  GI50: 3.42 µM (inactive)
SK-MEL-2
  GI50: 2.59 µM (inactive)
SNB-75
  GI50: 2.37 µM (inactive)
TK-10
  GI50: 2.37 µM (inactive)
UO-31
  GI50: 3.26 µM (inactive)
